{
  "source": "ChEMBL document CHEMBL1145737",
  "about": "(Bioorg Med Chem Lett, 2003)",
  "key": {"MDCK": {"test_system": "MDCK", "experiment": "Inhibitory concentration against Influenza A virus (A/Yamagata/32/89) MDCK cells determined by plaque reduction assay", "type": "functional, cell-based", "conditions": "Canis lupus familiaris"}, "Mus musculus": {"test_system": "Mus musculus", "experiment": "Median survival time was determined after oral administration (10 umol/kg) once daily for 5 days in mouse infected with influenza virus", "type": "functional"}, "[1]": {"molecular_target": "Neuraminidase (Influenza A virus (A/Puerto Rico/8/1934(H1N1)), UniProt P03468)", "sequence (P03468 whole entry)": "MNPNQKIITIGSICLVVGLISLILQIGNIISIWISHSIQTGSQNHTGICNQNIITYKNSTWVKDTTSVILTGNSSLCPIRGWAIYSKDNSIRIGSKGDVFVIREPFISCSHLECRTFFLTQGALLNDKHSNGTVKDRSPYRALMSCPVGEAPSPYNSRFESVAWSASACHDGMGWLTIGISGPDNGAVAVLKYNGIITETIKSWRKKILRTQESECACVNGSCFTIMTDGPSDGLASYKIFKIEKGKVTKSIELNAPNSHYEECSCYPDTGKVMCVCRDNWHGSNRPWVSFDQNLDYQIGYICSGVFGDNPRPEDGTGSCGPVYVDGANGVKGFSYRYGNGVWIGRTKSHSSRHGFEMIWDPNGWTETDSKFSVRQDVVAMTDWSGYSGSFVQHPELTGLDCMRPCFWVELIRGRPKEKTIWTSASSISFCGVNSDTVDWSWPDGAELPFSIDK", "experiment": "Inhibitory concentration against influenza A virus sialidase A/PR/8/34"}},
  "data": [
    {"compound": "CC(=O)N[C@H]1[C@H]([C@@H]2OCC[C@@H](O)[C@H]2O)OC(C(=O)O)=C[C@@H]1NC(=N)N", "values": [
      {"measurement": "IC50", "setting": "MDCK", "value": 0.6, "unit": "ng/mL"},
      {"measurement": "Survival time", "setting": "Mus musculus", "value": 10, "unit": "days"},
      {"measurement": "IC50", "setting": "[1]", "value": 28.7, "unit": "nM"}
    ]},
    {"compound": "CC(=O)N[C@H]1[C@H]([C@H]2C[C@@H](O)[C@@H](O)CO2)OC(C(=O)O)=C[C@@H]1NC(=N)N", "values": [
      {"measurement": "IC50", "setting": "MDCK", "value": "> 100", "unit": "ng/mL"},
      {"measurement": "IC50", "setting": "[1]", "value": 2780, "unit": "nM"}
    ]},
    {"compound": "CC(=O)N[C@H]1[C@H]([C@H]2CCCCO2)OC(C(=O)O)=C[C@@H]1NC(=N)N", "values": [
      {"measurement": "IC50", "setting": "MDCK", "value": "> 100", "unit": "ng/mL"},
      {"measurement": "IC50", "setting": "[1]", "value": 735, "unit": "nM"}
    ]},
    {"compound": "CC(=O)N[C@H]1[C@H]([C@@H]2C[C@H](O)[C@H](O)CO2)OC(C(=O)O)=C[C@@H]1NC(=N)N", "values": [
      {"measurement": "IC50", "setting": "MDCK", "value": "> 100", "unit": "ng/mL"},
      {"measurement": "IC50", "setting": "[1]", "value": 1030, "unit": "nM"}
    ]},
    {"compound": "CC(=O)N[C@H]1[C@H]([C@@H]2OCC(F)(F)[C@@H](O)[C@H]2O)OC(C(=O)O)=C[C@@H]1NC(=N)N", "values": [
      {"measurement": "IC50", "setting": "MDCK", "value": 1.4, "unit": "ng/mL"},
      {"measurement": "IC50", "setting": "[1]", "value": 27.1, "unit": "nM"}
    ]},
    {"compound": "CC(=O)N[C@H]1[C@H]([C@H]2C[C@H](O)[C@H](O)CO2)OC(C(=O)O)=C[C@@H]1NC(=N)N", "values": [
      {"measurement": "IC50", "setting": "MDCK", "value": "> 100", "unit": "ng/mL"},
      {"measurement": "IC50", "setting": "[1]", "value": 6.84, "unit": "nM"}
    ]},
    {"compound": "CC(=O)N[C@H]1[C@H]([C@@H]2C[C@@H](O)[C@@H](O)CO2)OC(C(=O)O)=C[C@@H]1NC(=N)N", "values": [
      {"measurement": "IC50", "setting": "MDCK", "value": "> 100", "unit": "ng/mL"},
      {"measurement": "IC50", "setting": "[1]", "value": 10000, "unit": "nM"}
    ]},
    {"compound": "CC(=O)N[C@H]1[C@H]([C@@H]2OCCC[C@@H](O)[C@H]2O)OC(C(=O)O)=C[C@@H]1NC(=N)N", "values": [
      {"measurement": "IC50", "setting": "MDCK", "value": 2.2, "unit": "ng/mL"},
      {"measurement": "IC50", "setting": "[1]", "value": 33.3, "unit": "nM"}
    ]},
    {"compound": "CC(=O)N[C@H]1[C@H]([C@@H]2OC[C@@H](O)[C@H]2O)OC(C(=O)O)=C[C@@H]1NC(=N)N", "values": [
      {"measurement": "IC50", "setting": "MDCK", "value": 1.4, "unit": "ng/mL"},
      {"measurement": "IC50", "setting": "[1]", "value": 17.7, "unit": "nM"}
    ]},
    {"compound": "CC(=O)N[C@H]1[C@H]([C@H](O)[C@H](O)CO)OC(C(=O)O)=C[C@@H]1NC(=N)N", "note": "[ZANAMIVIR]", "values": [
      {"measurement": "IC50", "setting": "MDCK", "value": 6.6, "unit": "ng/mL"}
    ]}
  ]
}
